In publication PMC5431086, “The Rational Design of Therapeutic Peptides for Aminopeptidase N using a Substrate-Based Approach” (Scientific Reports, 2017):
Positions of bridges follow the written chain, without caps; N, C: chain ends. Non-standard residues stand in square brackets, D forms with d. Residues, ends and D or L forms follow the SMILES beside them. Primed or numbered codes have the meaning given here. No end group written: not given here. FITC′ = fluorescein isothiocyanate label; Nle = CCCC[C@H](N)C(=O)O

Tests used:
PC3 cells [1] = assay: Clonogenic survival assay, PC3; assay type: cell-based
Procedure: (§1) The potential therapeutic efficacy of cyc-LHSPW was next tested in vitro using the PC3 and DU145 cell lines. […] Prior to in vivo therapeutic efficacy studies, a toxicity study was performed with the i.v. administration of cyc-LHSPW. […] Mice bearing established PC3 and DU145 xenografts were treated systemically via tail vein injection with 40 mg/kg of the tumor homing APN peptide cyc-NGR or the cyc-LHSPW peptide t.i.w. x4 (Fig. 6B). […] This therapeutic effect persisted to the end of the study with the cyc-LHSPW-treated mice having a tumor volume of 309.3 ± 92.7 mm^3 at day 35. […] PC3 tumors were removed and stained for the cellular proliferation marker Ki67.
(§2) Figure 6 The therapeutic evaluation of cyc-LHSPW in vivo and in vitro. (A) The effect of the three peptides cyc-LHSPW, LHSPW and cyc-nHSPW on the clonogenic survival of APN-expressing PC3 cells and APN-null DU145 cells. (B) Tumor growth of PC3 and DU145 xenograft mice treated with 40 mg/kg of cyc-LHSPW, cyc-NGR or saline control three times a week for four weeks. […] Statistical significance of cyc-LHSPW compared with control is denoted by: *P < 0.05; and **P < 0.01, as determined by the Student t test. […]
(§3) The clonogenic survival assays were conducted as previously described. […] Tumor measurements were made twice weekly with calipers and the tumor volume (in mm^3) was calculated by the formula 0.5236 × length (L) × width (W) × height (H). […]

DU145 cells [2] = assay: Clonogenic survival assay, DU145; assay type: cell-based
Procedure: as §1, §2, §3

hAPN (aminopeptidase N) = target: T1, hAPN (aminopeptidase N) (Homo sapiens, UniProt P15144); assay: Inhibition of cleavage of fluorogenic alanine substrate (H-Ala-AMC) by APN; assay type: biochemical
T1 construct: human APN ecdomain (residues 66–967) were expressed and purified as previously described; honeybee-melittin signal peptide (N); His6 (C); made in house; host or cells: insect cells
Procedure: Five-residue long peptides containing P1–P4′ residues from primary cleavages in the library were synthesized and tested for their ability to prevent the cleavage of a fluorogenic alanine substrate by hAPN.
The peptides used in this study were custom synthesized by AAPPTEC of Louisville, KY using traditional Fmoc solid-phase peptide synthesis. All of the peptides were purified and characterized by AAPPTEC. […] Inhibition assays were performed in triplicate in a 100 mM Tris pH 7.2, Brij 35 0.0002% w/v assay buffer at 37 °C with 0.1 μM APN and 100 μM H-Ala-AMC (fluorophore). Values were recorded by Infinite pro plate reader every 2 minutes for 30 minutes with laser parameters set for excitation at 355 nm and emission at 460 nm.

PC3 cells [3] = assay: Flow cytometry binding to APN-expressing PC3 cells; assay type: cell-based; conditions: 500 nmol/L, 60 minutes, 4 °C
Procedure: (§4) Next, the specificity of the lead peptide inhibitor cyc-LHSPW was tested against a panel of cancer-associated proteases with wide-ranging substrate specificities (Fig. 5A). APN was the only protease inhibited by cyc-LHSPW with chymotrypsin, trypsin, PSA, KLK7, aminopeptidase A, and the exopeptidase FAP all having Ki values above 100 μM. Having assessed selectivity for purified APN, we next evaluated the ability of cyc-LHSPW to preferentially bind to cells that express surface APN using flow cytometry (Fig. 5B). […] The expression of cell surface-associated APN was examined in the androgen receptor negative neuroendocrine prostate cancer cell lines PC3 and DU145 using a commercially available antibody. […] The peptide was next tested on frozen PC3 and DU145 tumor xenografts sections.
(§5) Figure 5 Determining the specificity of cyc-LHSPW for APN. (A) The cyc-LHSPW peptide was specific inhibitor of APN when compared to a panel of proteases. (B) Fluorescence microscopy of frozen PC3 (left) and DU145 (right) xenograft sections with cyc-LHSPW-(Gly)4-FITC. Sections were incubated with 250 nM of cyc-LHSPW-(Gly)4-FITC overnight and then visualized. The merged fluoresence channels are cyc-LHSPW-(Gly)4-FITC (green) and nuclei (DAPI, blue). (C) Analysis of APN inhibitor binding to PC3 (left) and DU145 cells (right) by flow cytometry. […]

DU145 cells [4] = assay: Flow cytometry binding to APN-null DU145 cells; assay type: cell-based; conditions: 500 nmol/L, 60 minutes, 4 °C
Procedure: as §4, §5

[5] = tested on: frozen PC3 and DU145 tumor xenografts sections; assay: Fluorescence microscopy of frozen tumor xenograft sections; conditions: 250 nM overnight, PC3 vs DU145 sections
Procedure: as §4, §5

T1 sequence (P15144 66-967): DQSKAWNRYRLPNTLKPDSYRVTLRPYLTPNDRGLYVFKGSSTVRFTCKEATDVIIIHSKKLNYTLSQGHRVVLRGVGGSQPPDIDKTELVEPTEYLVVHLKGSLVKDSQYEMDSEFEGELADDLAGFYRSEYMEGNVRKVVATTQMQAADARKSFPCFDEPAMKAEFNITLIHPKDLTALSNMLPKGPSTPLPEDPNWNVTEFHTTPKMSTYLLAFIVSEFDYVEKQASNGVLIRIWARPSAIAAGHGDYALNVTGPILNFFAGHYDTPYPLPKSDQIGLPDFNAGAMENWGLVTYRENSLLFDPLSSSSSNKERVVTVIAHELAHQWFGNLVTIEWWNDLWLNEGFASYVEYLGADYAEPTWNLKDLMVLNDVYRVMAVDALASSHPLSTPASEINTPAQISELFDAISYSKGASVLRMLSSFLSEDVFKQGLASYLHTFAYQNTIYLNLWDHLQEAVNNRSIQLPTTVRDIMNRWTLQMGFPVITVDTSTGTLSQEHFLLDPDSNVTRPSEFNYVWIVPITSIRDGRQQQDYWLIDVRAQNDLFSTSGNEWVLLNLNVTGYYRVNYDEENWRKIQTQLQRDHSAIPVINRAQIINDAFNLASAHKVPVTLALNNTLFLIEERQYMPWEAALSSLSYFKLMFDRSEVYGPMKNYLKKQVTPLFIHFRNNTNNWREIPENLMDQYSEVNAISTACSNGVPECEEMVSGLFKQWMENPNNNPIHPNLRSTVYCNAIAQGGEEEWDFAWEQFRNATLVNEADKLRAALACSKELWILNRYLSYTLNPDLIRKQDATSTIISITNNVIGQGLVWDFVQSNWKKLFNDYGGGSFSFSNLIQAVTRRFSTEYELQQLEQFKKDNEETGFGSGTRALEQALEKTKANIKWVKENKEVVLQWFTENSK

## CCCC[C@@H]1NC(=O)[C@@H](N)CSSC[C@@H](C(=O)O)NC(=O)[C@H](Cc2c[nH]c3ccccc23)NC(=O)[C@@H]2CCCN2C(=O)[C@H](CO)NC(=O)[C@H](Cc2c[nH]cn2)NC1=O [cyc-nHSPW, Cys-nHSPW-Cys] (H-C[Nle]HSPWC-OH; disulfide 1-7; N-terminus and C-terminus assumed)
PC3 cells [1]
  clonogenic survival: No significant biological effect
DU145 cells [2]
  clonogenic survival: No significant biological effect
hAPN (aminopeptidase N)
  inhibition of APN (in words): eliminated any measureable inhibition of APN

## cyc-LHSPW-(Gly)4-FITC: fluorophore-containing version of cyc-LHSPW with a (Gly)4-FITC group coupled to the C-terminal cysteine (CLHSPWCGGGG-{FITC′}; disulfide 1-7)
PC3 cells [3]
  binding to cells by flow cytometry: selectively labeled the APN-expressing PC3 cells over the APN-null DU145 cells
PC3 cells [3]; listed as FITC labeled cyc-LHSPW
  binding to cells by flow cytometry: preferentially bound to PC3 cells
DU145 cells [4]
  binding to cells by flow cytometry: no noticeable labelling of DU145 cells
[5]
  labeling of xenograft sections by fluorescence microscopy: Preferential labeling of the PC3 xenograft section was evident
